These results are taken from patent publication US9777008B2, “PRMT5 inhibitors and uses thereof” (Epizyme, Inc., priority 2012, dated 2017).

Assay [1] relates to symmetric di-methyl arginine in Z-138 cells. Put plainly: Z-138 Methylation Assay (In Cell Western for symmetric di-methyl arginine and DNA content). Format: cell-based. The following applies: read-out: ICW EC50. The source says:
[formula] [formula] Where top and bottom are the normally allowed to float, but may be fixed at 100 or 0 respectively in a 3-parameter fit. The Hill Coefficient normally allowed to float but may also be fixed at 1 in a 3-parameter fit. Y is the % inhibition and X is the compound concentration. Z-138 Methylation Assay
Z-138 suspension cells were purchased from ATCC (American Type Culture Collection, Manassas, Va.). RPMI/Glutamax medium, penicillin-streptomycin, heat inactivated fetal bovine serum, and D-PBS were purchased from Life Technologies, Grand Island, N.Y., USA. Odyssey blocking buffer, 800CW goat anti-rabbit IgG (H+L) antibody, and Licor Odyssey infrared scanner were purchased from Licor Biosciences, Lincoln, Nebr., USA. Symmetric di-methyl arginine antibody was purchased from EMD Millipore, Billerica, Mass., USA. 16% Paraformaldehyde was purchased from Electron Microscopy Sciences, Hatfield, Pa., USA. Z-138 suspension cells were maintained in growth medium (RPMI 1640 supplemented with 10% v/v heat inactivated fetal bovine serum and 100 units/mL penicillin-streptomycin) and cultured at 37° C. under 5% CO2.
Cell Treatment, in Cell Western (ICW) for Detection of Symmetric Di-Methyl Arginine and DNA Content.
Z-138 cells were seeded in assay medium at a concentration of 50,000 cells per mL to a 384-well cell culture plate with 50 μL per well. Compound (100 nL) from 384 well source plates was added directly to 384 well cell plate. Plates were incubated at 37° C., 5% CO2 for 96 hours. […]
First, the ratio for each well was determined by:
Each plate included fourteen control wells of DMSO only treatment (minimum inhibition) as well as fourteen control wells for maximum inhibition treated with 3 μM of a reference compound (Background wells). The average of the ratio values for each control type was calculated and used to determine the percent inhibition for each test well in the plate. […] Percent inhibition was determined and IC50 curves were generated using triplicate wells per concentration of compound. […]

Assay [2] has as its system Z-138 cell line. In words: Z-138 Proliferation Assay (Cell-Titer Glo, 5 days). The assay is classed as cell-based. The following applies: Z-138 cells. The source says:
[formula] Z-138 Proliferation Assay
Z-138 suspension cells were purchased from ATCC (American Type Culture Collection, Manassas, Va.). RPMI/Glutamax medium, penicillin-streptomycin, heat inactivated fetal bovine serum were purchased from Life Technologies, Grand Island, N.Y., USA. V-bottom polypropylene 384-well plates were purchased from Greiner Bio-One, Monroe, N.C., USA. Cell culture 384-well white opaque plates were purchased from Perkin Elmer, Waltham, Mass., USA. Cell-Titer Glo® was purchased from Promega Corporation, Madison, Wis., USA. SpectraMax M5 plate reader was purchased from Molecular Devices LLC, Sunnyvale, Calif., USA. […] Cell viability was measured by quantitation of ATP present in the cell cultures, adding […] of Cell Titer Glo® reagent to the cell plates. Luminescence was read in the SpectraMax M5 microplate reader. The concentration of compound inhibiting cell viability by 50% was determined using a 4-parametric fit of the normalized dose response curves.

Where only a bound is given, the exact number is not on record here.

The EC50 is the concentration needed to bring the measured effect to its halfway point. Consider `OC(COc1cccc(-c2ccc3cn[nH]c3c2)c1)CN1CCc2ccccc2C1` (stereo not shown) [Compound 58, 1-(3-(1H-indazol-6-yl)phenoxy)-3-(3,4-dihydroisoquinolin-2(1H)-yl)propan-2-ol], for which the EC50 was in the range of 1 to 10 µM in assay [1] and 10 to 40 µM in assay [2].

With “N-(3-(3-(3,4-dihydroisoquinolin-2(1H)-yl)-2-hydroxypropoxy)phenyl)pyrimidine-5-carboxamide [Compound 145]”, the EC50 in assay [1] is 1 to 10 µM; in assay [2], more than 20 µM.
